Where a SMILES comes first, the peptide text is derived from it. Bridges are numbered along the chain shown (N, C = ends).
Legend:
[1] = Parallel biophysical and cell viability experiments on h-IAPP variants; type: cell-based
Method: Parallel biophysical and cell viability experiments were conducted using a range of conditions that alter the length of the lag phase. h-IAPP amyloid kinetics are concentration-dependent. Decreasing the peptide concentration leads to an increase in the length of the lag phase, while an increase in human-IAPP concentration leads to a shortening of the lag phase. The length of the lag phase can also be controlled by altering the temperature. Lower temperatures lead to a longer lag phase; the lag phase is 2-fold longer at 15° C. […] A set of rationally designed Ser-20 mutations were used. Ser-20 is located at a critical position in the h-IAPP sequence and modulates its aggregation kinetics. […] Toxicity and kinetics experiments were performed on the Ser-20 mutants. […] An human-IAPP triple mutant, 3×L-IAPP, in which Leu replaced the three aromatic residues (Phe-15, Phe=23 and Tyr-37) was tested. This mutant forms amyloid 9-fold more slowly than wild type human IAPP (Marek at al. 2007). […] The duration of toxicity for all the mutants and for all the conditions with human IAPP wild type correlated with the length of the respective lag phases.

[2] = Marek at al. 2007; cited from earlier work

In the case of `CC[C@H](C)[C@H](NC(=O)[C@H](C)NC(=O)CNC(=O)[C@H](CC(C)C)NC(=O)[C@H](CC(N)=O)NC(=O)[C@H](CC(N)=O)NC(=O)[C@H](CO)NC(=O)[C@H](CO)NC(=O)[C@H](Cc1c[nH]cn1)NC(=O)[C@@H](NC(=O)[C@H](CC(C)C)NC(=O)[C@H](CC(C)C)NC(=O)[C@H](CC(N)=O)NC(=O)[C@H](C)NC(=O)[C@H](CC(C)C)NC(=O)[C@H](CCCNC(=N)N)NC(=O)[C@H](CCC(N)=O)NC(=O)[C@@H](NC(=O)[C@H](C)NC(=O)[C@@H]1CSSC[C@H](NC(=O)[C@@H](N)CCCCN)C(=O)N[C@@H](CC(N)=O)C(=O)N[C@@H]([C@@H](C)O)C(=O)N[C@@H](C)C(=O)N[C@@H]([C@@H](C)O)C(=O)N1)[C@@H](C)O)C(C)C)C(=O)N[C@@H](CC(C)C)C(=O)N[C@@H](CO)C(=O)N[C@@H](CO)C(=O)N[C@H](C(=O)N[C@@H](CC(N)=O)C(=O)N[C@H](C(=O)NCC(=O)N[C@@H](CO)C(=O)N[C@@H](CC(N)=O)C(=O)N[C@H](C(=O)N[C@@H](CC(C)C)C(N)=O)[C@@H](C)O)C(C)C)[C@@H](C)O` [3×L-IAPP] (H-KCNTATCATQRLANLLVHSSNNLGAILSSTNVGSNTL-NH2; disulfide 2-7), the “onset and duration of toxicity relative to wild type human IAPP” value [1] is listed as “longer duration of toxicity” and the “amyloid formation slower than wild type human IAPP” value [2] is listed as 9 fold.

From US20160038448A1, “THE INHIBITION OF THE TOXIC EFFECTS OF ISLET AMYLOID FORMATION BY FLURBIPROFEN AND FLURBIPROFEN DERIVATIVES” (The Research Foundation for the State University of New York, priority 2013, published 2016)
